Measured values from publication PMC10853860 (2023).

Assays:
[1] = test system: T. ilyis hypo consensus SAM-I riboswitch (TilconsSAMItrx) (RNA, riboswitch) AAAAUAACUUCUUUAUCACGAGAGAUUGAGGGACUGGCCCGAUGACAUCUCAGCAACCGACCCACGCGUAACGCGGCGGCACGGUGCUAAAUCCUGCAGAGUAAUCUGAGAGAUAAGAAGAGCAAAUCGACAUUCCCGACUCUUCUUGUUAUAAGAAGGGUUUUUUGUUUUCAAAAAAACAAUCUGGAGGGAAAAACG; assay: single-round transcription termination; details: 100 mM KCl, 2 mM MgCl2, 20 mM Tris-HCl pH 8.0, 37 °C
[2] = test system: T. ilyis ldcC SAM-I variant riboswitch WT (TiltrxWT) (RNA, riboswitch) AAAAUAUCUCUUAUUAAUAGCCGUUGAGACGAGGGGUCGAAGAUACGGUGGCAAACCAAUCAAUCCAAUUUUUUUGCAGUACGGAUUGAUAUUGGGUGCCCAACCUGAGCGUAGGAUUAUCCAAGUCCUAUGAGCAAUAAGAGGAAAAGCAGCUGAUAGAUAUCGAAGCUUUCCUUUGGUUGGAGAGCUUUUUUUAUGCCCAUUUUUUAUAUCAAAGGGGGAAAUCUAU; assay: single-round transcription termination; details: 100 mM KCl, 2 mM MgCl2, 20 mM Tris-HCl pH 8.0, 37 °C; for binding: 1 mM tested, no termination increase; for T50: E. coli RNA polymerase, apparent
[3] = test system: 135 metK RNA (RNA, riboswitch) GGUCUAUCUUAUUAAUAGCCGUUGAGACGAGGGGUCGAAGAAGCGGUGGCAAACCAGUCCAAAUCAAUGAUUUGGAUAUGGGGCCCAACCUGAGCGCAGAGCUUUUCUGUUCUGUGAACAAUAAGAGGAUAAGCAG; assay: in-line probing; details: 100 mM KCl, 2 mM MgCl2, 50 mM Tris-HCl pH 7.5, ~20 °C, apparent
[4] = test system: 135 metK M14 (RNA, riboswitch) GGUCUAUCUUAUUAAAAGCCGUUGAGACGAGGGGUCGAAGAAGCGGUGGCAUACCAGUCCAAAUCAAUGAUUUGGAUAUGGGGCCAAACCUGAGCGCAGAGCUUUUCUGUUCUGUGAACAAUAAGAGGAUAAGCAG; assay: in-line probing; details: 100 mM KCl, 2 mM MgCl2; 50 mM Tris-HCl pH 7.5, ~20 °C; 1 and 5.6 mM tested
[5] = test system: T. ilyis ldcC M9 (TiltrxshortP1) (RNA, riboswitch) AAUUAAUAGCCGUUGAGACGAGGGGUCGAAGAUACGGUGGCAAACCAAUCAAUCCAAUUUUUUUGCAGUACGGAUUGAUAUUGGGUGCCCAACCUGAGCGUAGGAUUAUCCAAGUCCUAUGAGCAAUAAGAGGAAAAGCAGCUGAUAGAUAUCGAAGCUUUCCUUUGGUUGGAGAGCUUUUUUUAUGCCCAUUUUUUAUAUCAAAGGGGGAAAUCUAU; assay: single-round transcription termination; details: 100 mM KCl, 2 mM MgCl2; 20 mM Tris-HCl pH 8.0, 37 °C; no termination response
[6] = test system: (RNA, riboswitch) AAAAUAUCUCUUAUUAAUAGCCGUUGAGACGAGGGGUCGAAGAUACGGUGGCAAACCAAUCAAUCCAAUUUUUUUGCAGUACGGAUUGAUAUUGGGUGCCCAACCUGAGCGUAGGAUUAUCCAAGUCCUAUGAGCAAUAAGAGGAAAAGCAGCUGAUAGAUAUCGAAGCUUUCCUUUGGUUGGAGAGCUUUUUUUAUGCCCAUUUUUUAUAUCAAAGGGGGAAAUCUAU; assay: single-round transcription termination; details: 100 mM KCl, 2 mM MgCl2; 20 mM Tris-HCl pH 8.0, 37 °C; 1 mM tested; no termination increase

With `C[S+](CC[C@H](N)C(=O)O)C[C@H]1O[C@@H](n2cnc3c(N)ncnc32)[C@H](O)[C@@H]1O` (some centres unmarked) the binding ([1]; 1 mM SAM, strong termination) was “yes” and the binding [2] was “no”.

With `NCCCNCCCCNCCCN` the KD ([3]; Hill 1.4) was ~ 340 μM and the T50 [2] was 79 µM.

For `CCNCCCN`, the binding [2] was “no”.

For `CNCCCN`, the binding [2] was “no”.

With `CCCNCCCN` the binding [2] was “no”.

In the case of `NCCCCNCCCN`, the binding [4] is reported as “weak”, the KD ([3]; Hill 1.4, replicate ~730 μM) is reported as ~ 670 μM and the binding ([1]; 1 mM tested, no termination response) is reported as “no”. The binding [5] was “no” and the T50 [2] was 214 µM.

For `NCCCSC[C@H]1O[C@@H](n2cnc3c(N)ncnc32)[C@H](O)[C@@H]1O`, the binding [6] was “no”.

With `CC(=O)NCCCNCCCCN` the binding [2] was “no”.

For `CC(=O)NCCCNCCCCNCCCN`, the KD ([3]; Hill 1.5) was ~ 860 μM.

In the case of `NCCCN`, the binding [2] is reported as “no”.

For `CSC[C@H]1O[C@@H](n2cnc3c(N)ncnc32)[C@H](O)[C@@H]1O`, the binding [2] was “no”.
